Assay results taken from US20090042849A1, “Phosphorylation of 5-lipoxygenase at ser523 and uses thereof” (priority 2006, published 2009).
Entries after “also recorded” stand apart in the source; their conditions may differ.

Key:
[1] = test system: 5LO interaction with COX2 / cPLA2; assay: co-immunoprecipitation of 5LO with COX2 and cPLA2 in rat hearts; format: in vivo
Method: Rats received: 1) PIO (10 mg/kg/d); 2) ATV (10 mg/kg/d); 3) PIO (10 mg/kg/d)+H89 (20 mg/kg); 4) ATV (10 mg/kg/d)+H89 (20 mg/kg); 5) H89 (20 mg/kg) or 6) water alone (control). PIO and ATV were suspended in water and administered by gastric gavage once daily for 3 days; H-89 was dissolved in DMSO (final concentration 5% v/v) and injected intraperitoneally on the third day. Rats in groups 5 and 6 received water by gastric gavage once daily for 3 days. Rats in groups 1, 2 and 6 received intraperitoneal inkection of DMSO 5%. Sixteen hours after the injection, rats were euthanized and the hearts explanted for further analyses. In another experiment, rats received 3-day pretreatment with: 1) water (sham); 2) PIO (10 mg/kg/d); 3) ATV (10 mg/kg/d); 4) PIO (10 mg/kg/d)+ATV (10 mg/kg/d); or 5) LPS (10 mg/kg).
For co-immunoprecipitation, myocardial cytosolic, membranous and nuclear fractions (500 μg) were incubated with anti-5LO antibodies for 4 h followed by overnight incubation at 4° C. with Protein-A-Agarose. The agarose beads were collected by centrifugation and SDS/PAGE Western immunoblotting was performed with the supernatant fraction. The anti-5LO precipitates were subjected to immunoblotting with anti-COX2 or anti-cPLA2 antibodies.

[2] = test system: LTB4; assay: LTB4 levels in adult rat cardiac myocytes (ELISA); format: cell-based; details: PIO 10 μM, ATV 10 μM, H-89 0.1 μM, 12 hours
Method: (§1) Cardiac myocytes were isolated from adult Sprague-Dawley rats (250-300 g, male). Animals were heparinized (1,000-2,000 units i.p.) 5 min before being anesthetized with ketamine (100 mg/kg) and xylazine (10 mg/kg), and the hearts were removed and placed in ice-cold heart media solution (in mmol/l: 112 NaCl, 5.4 KCl, 1 MgCl2, 9 NaH2PO4, and 11.1 D-glucose; supplemented with 10 HEPES, 30 taurine, 2 DL-carnitine, and 2 creatine, pH. 7.4). The hearts were perfused retrogradely in a Langendorff apparatus with Ca^2+-free heart media for 5 min at 5 ml/min at 37° C., followed by perfusion with Ca^2+-free heart media containing collagenase II, 210 U/mg (Worthington, Lakewood, N.J.) for 20 min. After perfusion, both ventricles were removed from the heart and minced in collagenase II-containing heart media for 10-15 min. The cell solution was then washed several times to remove collagenase II and reexposed to 1.2 mM Ca2^+ over 25 min to produce Ca2^+-tolerant cardiac myocytes. Myocytes were then plated in 4% FBS on laminin (2 μg/cm^2)-coated plates for 1 h and incubated at 37° C. in 5% CO2 for 12-24 h before experiments (21). Cells were incubated with 1) vehicle (0.07% ethanol); 2) PIO (10 μM)+ATV (10 μM); 3) H-89 (0.1 μM); or 4) PIO+ATV+H-89 for 12 hours. The supernatants were collected directly for LTB4 analyses by ELISA and the cells were harvested for immunoblotting. […]

[3] = test system: COX2; assay: immunofluorescence of COX2 in adult rat cardiac myocytes; format: cell-based
Method: as §1, with “myocytes.” for “myocytes. Myocytes were then plated in 4% FBS on laminin (2 μg/cm^2)-coated plates for 1 h and incubated at 37° C. in 5% CO2 for 12-24 h before experiments (21). Cells were incubated with 1) vehicle (0.07% ethanol); 2) PIO (10 μM)+ATV (10 μM); 3) H-89 (0.1 μM); or 4) PIO+ATV+H-89 for 12 hours. The supernatants were collected directly for LTB4 analyses by ELISA and the cells were harvested for immunoblotting.”
(§2) Immunofluorescent labeling was performed on paraffin sections (5-μm) of 4% formaldehyde-fixed rat cardiac tissue, as described previously (22). […] All the slides were viewed under an Olympus BX51 microscope [images recorded by a DP70 Digital camera (Olympus Optical Co., Ltd., Tokyo, Japan)] or confocal microscope (Bio-Rad 2100 (Hercules, Calif.).

[4] = test system: cPLA2; assay: immunofluorescence of cPLA2 in adult rat cardiac myocytes; format: cell-based; details: PIO 10 μM, ATV 10 μM, H-89 0.1 μM, 12 hours
Method: as §1, with “myocytes.” for “myocytes. Myocytes were then plated in 4% FBS on laminin (2 μg/cm^2)-coated plates for 1 h and incubated at 37° C. in 5% CO2 for 12-24 h before experiments (21). Cells were incubated with 1) vehicle (0.07% ethanol); 2) PIO (10 μM)+ATV (10 μM); 3) H-89 (0.1 μM); or 4) PIO+ATV+H-89 for 12 hours. The supernatants were collected directly for LTB4 analyses by ELISA and the cells were harvested for immunoblotting.”
as §2

[5] = test system: 15ELXA; assay: 15ELXA levels in adult rat cardiac myocytes (ELISA); format: cell-based
[6] = PIO 10 μM, ATV 10 μM, H-89 0.1 μM, 12 hours

| Compound | fraction in which the co-immunoprecipitation with 5LO occurred ([1]; cytosolic and membranous fractions) | co-immunoprecipitation of COX2 or cPLA2 with 5LO ([1]; whole cell lysate) | LTB4 levels [2] | effect on the increased expression of COX2 by PIO+ATV ([3]; H-89 0.1 μM with PIO+ATV) | COX2 expression [3, 6] | cPLA2 expression [4] | effect on the PIO+ATV augmentation of 15ELXA levels ([5]; H-89 0.1 μM with PIO+ATV) | levels of 15ELXA [5, 6] |
| --- | --- | --- | --- | --- | --- | --- | --- | --- |
| CC(C)c1c(C(=O)Nc2ccccc2)c(-c2ccccc2)c(-c2ccc(F)cc2)n1CCC(O)CC(O)CC(=O)O (centres unmarked) [ATV, 7-[2-(4-fluorophenyl)-5-(1-methylethyl)-3-phenyl-4-(phenylcarbamoyl)-1H-pyrrol-1-yl]-3,5-dihydroxy-heptanoic acid] | in the cytosolic, but not the membranous fraction; also recorded: only in the cytosolic fraction | 5LO precipitated with COX2 and COX2, but not cPLA2, precipitated with 5LO | – | – | – | – | – | – |
| O=S(=O)(NCCNC/C=C/c1ccc(Br)cc1)c1cccc2cnccc12 [H-89] | – | – | no significant effect | did not affect; also recorded: no effect | no effect | no effect | attenuated | no effect |
